Test results as given in patent US8252846B2, “Strategies for delivery of active agents using micelles and particles” (priority 2005, dated 2012).

Columns and labels:
serum nucleases = assay: Protection of ISS-DNA from serum nucleases (gel electrophoresis); type: in vitro ADME; conditions: 10% serum, 12 hours
Protocol: The stimuli responsive release of peptides from the PCMs due to the presence of GSH was investigated to determine if the PCMs will release peptide antigens after phagocytosis. The PCMs were incubated with different concentrations of GSH, for 24 hours in 50 mM pH 7.4 PBS buffer, and then analyzed by HPLC to determine the release of peptides. […] Incubation of the PCMs with 10 mM GSH (intracellular levels) induces the release of 71% of peptide, whereas incubation of the PCMs with just buffer causes the release of only 10% of peptides. B. GSH sensitive DNA release. The ability of the PCMs to protect encapsulated ISS-DNA from degradation by serum nucleases was investigated. PCMs were synthesized (as described above) and incubated with 10% serum for 12 hours, these PCMs were then examined by gel electrophoresis to determine the stability of the encapsulated ISS-DNA. As a control, ISS-DNA by itself was incubated with serum. […] C. […] A key advantage of the PCM strategy is that it generates a crosslinked delivery system. This crosslinking should stabilize the PCMs in vivo. The stability of the PCMs to decomposition was investigated by mixing the negatively charged polymer, poly(vinyl sulfate) (PVS) with the PCMs, this mixture was then analyzed by gel electrophoresis to determine the quantity of ISS-DNA displaced by the PVS. […]

[1] = cited from earlier work
[2] = Hydrolysis of polyketal copolymers in buffered water (1H NMR); type: physicochemical; conditions: buffer
Protocol: The molecular weight of the polyketal copolymers was determined by gel permeation chromatography (GPC) using a Shimadzu system (Kyoto, Japan) equipped with a UV detector. THF was used as the mobile phase at a flow rate of 1 mL/min. Polystyrene standards (Peak Mw=1060, 2970, and 10680) from Polymer Laboratories (Amherst, Mass.) were used to establish a molecular weight calibration curve. The hydrolysis of the polyketal copolymers was measured in buffered water at pH values of 1.0 (0.1M HCL), 4.5 (100 mM AcOH) and 7.4 (100 mM) at 37° C. Briefly, 20 mg of the polymer samples were placed in a 5 ml vial, 1 mL of buffer solution was added to each vial, and mixed with a magnetic stir bar. At specific time points, 1 mL of CDCl3 was added to each vial and shaken vigorously, the CDCl3 phase was isolated and analyzed by ^1H NMR, to determine the percent hydrolysis the of ketal linkages in polyketal copolymer.

5-TCCATGACGTTCCTGACGTT-3 [ISS-DNA]
Stability of ISS-DNA to serum nucleases (serum nucleases): completely hydrolyzed

OCC1CCC(CO)CC1 (stereo not drawn) [1,4-cyclohexanedimethanol]
Log P of diol [1]: 1.46

OCCCCCCCCO [1,8-octanediol]
Log P of diol [1]: 1.75

poly(cyclohexane-1,4-diyl acetone dimethylene ketal-co-1,5-pentane-acetone dimethylene ketal [PK3]
Estimated half life at pH 7.4 ([2]; pH 7.4): 39 days
Hydrolysis half life at pH 7.4 (in words) ([2]; pH 7.4): several weeks

poly(cyclohexane-1,4-diyl acetone dimethylene ketal-co-1,6-hexane-acetone dimethylene ketal) [PK5]
Half life at pH 4.5 [2]: 4.4 days
Estimated half life at pH 7.4 ([2]; pH 7.4): 53 days

poly(cyclohexane-1,4-diyl acetone dimethylene ketal-co-1,8-octane-acetone dimethylene ketal) [PK6]
Half life at pH 4.5 [2]: 18.6 days
Estimated half life at pH 7.4 ([2]; pH 7.4): 360 days
